According to the SangsterLogP compilation:

Experiments:
[1] = method code SF-RC, from DOI: 10.1016/j.nucmedbio.2009.09.005, PMID: 20447558; settings: pH 7.4
[2] = not given; remark: listed apart in the source
[3] = method code SF, from DOI: 10.1016/0378-5173(91)90120-d
[4] = not given; remark: listed apart in the source
[5] = not given; remark: listed apart in the source
[6] = method code SF-AS, from Pogodaeva, N.; Medvedeva, S. (2005). Hydrophobic properties of a number of monosubstituted flavone and flavanone derivatives. Russian Journal of Physical Chemistry A, 79(4)645-648.
[7] = method code SF-HPLC, from DOI: 10.1021/je049947x
[8] = method code SF-HPLC, from DOI: 10.1002/ps.2780130506
[9] = not given; remark: listed apart in the source
[10] = method code SF-RC, from DOI: 10.1016/s0968-0896(99)00108-x, PMID: 10530922; settings: pH 7.2
[11] = method code SF-MB, from DOI: 10.1016/0378-5173(83)90017-0; settings: pH 3.5
[12] = not given; remark: listed apart in the source
[13] = method code SF, from Kim, K.; Kim, J.; Kim, Y. (1997). Study on physicochemical properties of pesticides. II. Hanguk Nonghwa Hakhoe Chi, 40(1)76-79.
[14] = method code SF-AS, from DOI: 10.1155/2011/965826, PMID: 22295208
[15] = method code SF, from DOI: 10.1023/a:1007583422634, PMID: 11028945; settings: pH 7.4
[16] = not given; remark: listed apart in the source
[17] = method code SF-RC, from Bracha, P.; O'Brien, D. (1966). The relation between physical properties and uptake of insecticides by eggs of the large milkweed bug. J Econ Entomol, 59(5)1255-1264.
[18] = not given; remark: listed apart in the source
[19] = not given; remark: listed apart in the source
[20] = method code SF-GLC, from DOI: 10.1021/es60128a001
[21] = method code SF-AS, from DOI: 10.1021/jf990946w, PMID: 10888534
[22] = not given; remark: listed apart in the source
[23] = not given; remark: listed apart in the source
[24] = not given; remark: listed apart in the source
[25] = method code SF-AS, from DOI: 10.1021/jm00384a018, PMID: 3806586
[26] = not given; remark: listed apart in the source
[27] = not given; remark: listed apart in the source
[28] = method code SF, from DOI: 10.1021/jm5017544, PMID: 25671691; settings: pH 7.4
[29] = method code SF, from PMID: 2161451; settings: pH 7.4
[30] = method code SF-AS, from Lippold, B.; Lichey, J. (1984). Transport of drugs through lipophilic polymer membranes. II. Influence of the partition and diffusion coefficients. Acta pharmaceutica technologica, 30(2)140-154.
[31] = method code SF-RC, from DOI: 10.1016/j.nucmedbio.2007.07.017, PMID: 17998101; settings: pH 7.4
[32] = method code SF-HPLC, from PMID: 18557421; settings: pH 1.0
[33] = not given; remark: listed apart in the source
[34] = not given; remark: listed apart in the source
[35] = method code SF-RC, from DOI: 10.1016/s0969-8051(02)00326-8, PMID: 12234587; settings: pH 7.4
[36] = method code SF-RC, from DOI: 10.1016/j.nucmedbio.2010.09.012, PMID: 21492779; settings: pH 7.4
[37] = not given; remark: listed apart in the source
[38] = method code SF-RC, from DOI: 10.1016/s0024-3205(01)01232-2; settings: pH 7.4
[39] = method code SF-HPLC, from DOI: 10.1016/0378-5173(95)00102-o
[40] = not given; remark: listed apart in the source
[41] = not given; remark: listed apart in the source
[42] = method code SF, from DOI: 10.1248/cpb.18.708; settings: pH 6.4
[43] = method code SF-SF, from DOI: 10.1016/j.ejps.2010.09.003, PMID: 20854904; settings: pH 10.0
[44] = method code SF-HPLC, from DOI: 10.1023/a:1015968113838, PMID: 3247280; settings: pH 7.4
[45] = not given; remark: listed apart in the source
[46] = method code SF-AS, from Kofitsekpo, W. (1980). An experimental evaluation of the log P of oxamniquine - a new schistosomicide. Drugs under experimental and clinical research, 6(5)421-426.
[47] = not given; remark: listed apart in the source
[48] = method code SF, from DOI: 10.1016/0223-5234(96)89550-x
[49] = method code SF, from DOI: 10.1016/0048-3575(89)90162-4

## O=C1c2ccccc2C(=O)C1c1ccccc1
other
  logP: 2.5

## CC(C1CCCCC1)N(C)C(=O)c1ccc[nH]1 (stereo not given)
[1]
  logD: 1.48

## CC(C)(C)C(=O)CC(C(O)C(C)(C)C)n1cncn1 (stereo not given)
[2]
  logP: 1.95

## Cc1cccc(Nc2ccccc2C(=O)O)c1C
[3]
  logP: 4.38

## COc1ccc(CN2CCNCC2)c(OC)c1OC
[4]
  logP: 1.04

## O=c1c(O)c(-c2ccc(O)c(O)c2)oc2cc(O)cc(O)c12
[5]
  logP: 2.13

## O=C1c2ccccc2OC(c2ccccc2)C1O (stereo not given)
[6]
  logP: 2.57

## Cc1cccc(C)c1N(Cn1cccn1)C(=O)CCl
[7]
  logP: 2.22

## CNC(=O)ON=Cc1cccc(Oc2ccccc2)c1
[8]
  logP: 3.12

## Cc1ccc2ccc3ccccc3c2c1
[9]
  logP: 5.15

## CSc1ccc(COCCCc2c[nH]cn2)cc1
[10]
  logD: 1.88

## CCCCCC(=O)N[C@@H]1C(=O)N2[C@@H]1SC(C)(C)[C@@H]2C(=O)O
[11]
  logD: 2.37

## CC1CCCC(C)N1NC(=O)c1ccc(Cl)c(S(N)(=O)=O)c1 (stereo not given)
[12]
  logP: 1.18

## CCOP(=S)(OCC)Oc1cc(C(F)(F)F)nn1-c1ccccc1
[13]
  logP: 5.24

## CC(=O)OC[C@H]1O[C@@H](n2cnc(N)nc2=O)[C@H](OC(C)=O)[C@@H]1OC(C)=O
[14]
  logP: -0.61

## CCCCCOC(=O)[C@@H](N)Cc1ccc(O)c(O)c1
[15]
  logD: 1.5

## S=C(CCCCC1CCSS1)NCCN1CCOCC1 (stereo not given)
[16]
  logP: 2.9

## CNC(=O)Oc1cc(C(C)C)cc(C(C)C)c1
[17]
  logP: 3.55

## COC(=O)C1(O)c2ccccc2-c2ccccc21
[18]
  logP: 1.67

## CCn1cc(C(=O)O)c(=O)c2cc([N+](=O)[O-])c(NCCO)cc21
[19]
  logP: 0.98

## CCOP(=S)(OCC)SC(CCl)N1C(=O)c2ccccc2C1=O (stereo not given)
[20]
  logP: 4.69

## O=c1c(O)c(-c2cc(O)c(O)c(O)c2)oc2cc(O)cc(O)c12
[21]
  logP: 0.72

## Cc1c(-c2ccc(OCCCc3c[nH]cn3)cc2)no[n+]1[O-]
[22]
  logP: 2.4

## CCCOC(=O)c1ccccc1C(=O)OCCC
[23]
  logP: 4.05

## Cc1c2ccccc2cc2ccccc12
[24]
  logP: 4.96

## CC(O)C1=CCN(NC(=O)c2ccccc2)CC1 (stereo not given)
[25]
  logP: 0.04

## CCCN(CCOc1c(Cl)cc(Cl)cc1Cl)C(=O)n1ccnc1
[26]
  logP: 4.1

## COc1cc(Cc2cnc(N)nc2N)c(I)c(OC)c1OC
[27]
  logP: 1.79

## Nc1ccc(-c2ccc3ccccc3n2)cc1
[28]
  logD: 1.85

## CCOC(=O)c1ncn2c1CN(C)C(=O)c1c(I)cccc1-2
[29]
  logD: 1.48

## Cc1ccc(Cl)c(OCC(O)CNC(C)(C)C)c1 (stereo not given)
[30]
  logP: 2.8

## FCCON=C1C=C(C#Cc2ccccn2)CCC1
[31]
  logD: 2.1

## COc1c(O)cc2c(c1O)C1OC(CO)C(O)C(O)C1OC2=O (stereo not given)
[32]
  logD: -1.06

## CCOC(=O)CCCn1c(=O)oc2ccccc2c1=O
[33]
  logP: 0.63

## CC(C)Cn1cnc2c(N)nc3ccccc3c21
[34]
  logP: 2.89

## CNc1ccc(-c2cc3cc(I)ccc3o2)cc1
[35]
  logD: 2.04

## CN(C)c1ccc(-c2nc3ccc(I)cc3[nH]2)cc1
[36]
  logD: 2.8

## CC(C(=O)O)c1ccc2c(c1)[nH]c1ccc(Cl)cc12 (stereo not given)
[37]
  logP: 4.04

## CNc1ccc(-c2nc3ccc(C)cc3s2)cc1
[38]
  logD: 3.36

## CCCCCCCCOC(=O)c1cccnc1
[39]
  logP: 4.71

## COc1cccc(N2CCN(CCN(C)C)C2=O)c1
[40]
  logP: 1.76

## CCCCCCCCc1ccccc1
[41]
  logP: 6.5

## Cc1cc(C)cc(NS(=O)(=O)c2ccc(N)cc2)c1
[42]
  logD: 2.52

## CN1CCN(CCC(=O)c2ccccc2)CC1
[43]
  logD: 1.12

## CC(C)(C)C(=O)OCC1OC(n2cc(I)c(=O)[nH]c2=O)CC1O (stereo not given)
[44]
  logD: 1.34

## CC(C)(c1cc(Br)c(O)c(Br)c1)c1cc(Br)c(O)c(Br)c1
[45]
  logP: 5.2

## CC(C)NCC1CCc2cc(CO)c([N+](=O)[O-])cc2N1 (stereo not given)
[46]
  logP: 2.24

## CCN(CC)CCNC(=O)c1cc(Br)c(N)cc1OC
[47]
  logP: 2.62

## O=C(Nc1ccn(C2CSC(CO)O2)c(=O)n1)c1cccnc1 (stereo not given)
[48]
  logP: 0.84

## OC1(c2cc(Cl)ccc2Cl)CCCCC1n1cncn1 (stereo not given)
[49]
  logP: 3.24
